Consider 2 compounds from US20200172631A1, “ERBB2/HER2 MUTATIONS IN THE TRANSMEMBRANE OR JUXTAMEMBRANE DOMAIN” (GENENTECH, INC., priority 2017, published 2020).

The structures appear in SMILES notation.

For this test, the system named is TM/JM Her2 mutants expressed in BaF3 cells. The experiment in a line: BaF3 cell viability assay, all Her2 TM/JM mutants tested. It is filed as cell-based, human. Particulars: BaF3 system, all Her2 TM/JM mutants tested (FIG. 7).

Protocol: BaF3 cells were maintained in RPMI 1640 supplemented with 10% (v/v) fetal bovine serum (Thermo Fisher Scientific, IL), 2 mM L-glutamine, 100 U/ml penicillin, 100 mg/ml streptomycin (complete RPMI) and 2 ng/mL mouse IL-3.
BaF3 cells were cultured in complete RPMI media supplemented with recombinant murine IL-3 (mIL-3) and puromycin (1 μg/ml).
BaF3 cells survival assay was performed as described previously (Jaiswal et al., 2011). Briefly, stable cells expressing Her2 WT or mutants were washed twice times with 1× PBS and plated in 96-well plates (10,000 cells/well) in replicates of 12 in complete RPMI medium without IL-3. Cell viability was measured using the Cell Titer Glo Luminescence Cell Viability Kit (Promega, CA), and plates were read on a Synergy 2 (Biotek Instruments) luminescence plate reader. Relative survival reported was calculated as a ratio of relative luciferase activity (RLU) at day 4 over RLU measured at the day 0. The mutant Her2 constructs were tested in BaF3 either alone or in the presence of WT Flag tagged Her2 as indicated.
Viable cell number was assessed 4 days after treatment using Cell Titer-Glo Luminescent cell viability assay kit (Promega, WI). Non-linear regression plot of antibodies and their fractions or inhibitors were generated and calculation of IC50 was performed using GraphPad Prism 5.00 (GraphPad Software, CA). […]

In the case of `CS(=O)(=O)CCNCc1ccc(-c2ccc3ncnc(Nc4ccc(OCc5cccc(F)c5)c(Cl)c4)c3c2)o1` [lapatinib], the “response of Her2 TM/JM mutants to ERBB2 kinase inhibitory small molecule drugs, effect on cell survival” value was “respond”.

Regarding `CCOc1cc2ncc(C#N)c(Nc3ccc(OCc4ccccn4)c(Cl)c3)c2cc1NC(=O)/C=C/CN(C)C` [neratinib], the “response of Her2 TM/JM mutants to ERBB2 kinase inhibitory small molecule drugs, effect on cell survival” value was “respond”.
